Reference: US6737507B2, “Antiangiogenic peptides and compositions thereof” (Children's Medical Center Corporation, priority 1999, dated 2004)
One block for each molecule: values may come before it.

Tests used:
[1] = test system: capillary tube formation; conditions: in vitro; cited from earlier work
[2] = test system: capillary endothelial cells (EC); assay: bFGF-stimulated EC proliferation assay; type: cell-based; conditions: FIG. 1
Description: Inhibition of endothelial cell proliferation may be measured by calorimetric determination of cellular acid phosphatase activity or electronic cell counting. These methods provide a quick and sensitive screen for determining the number of endothelial cells in culture after treatment with the connective tissue growth factor protein, derivative, or analog of the invention, and an angiogenesis stimulating factor such as aFGF. The calorimetric determination of cellular acid phosphatase activity is described by Connolly et al., 1986, J. Anal. Biochem. J52:136-140. According to this method, capillary endothelial cells are treated with angiogenesis stimulating factors, such as aFGF, and a range of potential inhibitor concentrations. These samples are incubated to allow for growth, and then harvested, washed, lysed in a buffer containing a phosphatase substrate, and then incubated a second time. A basic solution is added to stop the reaction and color development is determined at […]. According to Connolly et al., a linear relationship is obtained between acid phosphatase activity and endothelial cell number up to 10,000 cells/sample. […] Percent inhibition is determined by comparing the cell number of samples exposed to stimulus with those exposed to both stimulus and inhibitor. […] Following incubation, the cells are harvested and the extent of thymidine incorporation is determined. […]

[3] = test system: neovascularization; assay: CAM assay (chick chorioallantoic membrane), neovascularization in vivo
Description: Assays for the ability to inhibit angiogenesis in vivo include the chick chorioallantoic membrane assay and mouse, rat or rabbit corneal pocket assays. See, Polverini et al., 1991, Methods Enzymol. 198:440-450. In corneal pocket assays, a tumor of choice is implanted into the cornea of the test animal in the form of a corneal pocket. The potential angiogenesis inhibitor is applied to the corneal pocket and the corneal pocket is routinely examined for neovascularization. The purified protein inhibited bFGF-stimulated EC proliferation in the bFGF stimulated EC proliferation assay (Moses, et al., Science, 248:1408-1410 (1990)) (FIG. 1) and inhibited neovascularization in vivo in the CAM assay.

[4] = biological target: T1, MMP-1 (Homo sapiens, UniProt P03956); assay: MMP-1 activity assay; type: biochemical; conditions: FIG. 2
T1 sequence (P03956 100-469): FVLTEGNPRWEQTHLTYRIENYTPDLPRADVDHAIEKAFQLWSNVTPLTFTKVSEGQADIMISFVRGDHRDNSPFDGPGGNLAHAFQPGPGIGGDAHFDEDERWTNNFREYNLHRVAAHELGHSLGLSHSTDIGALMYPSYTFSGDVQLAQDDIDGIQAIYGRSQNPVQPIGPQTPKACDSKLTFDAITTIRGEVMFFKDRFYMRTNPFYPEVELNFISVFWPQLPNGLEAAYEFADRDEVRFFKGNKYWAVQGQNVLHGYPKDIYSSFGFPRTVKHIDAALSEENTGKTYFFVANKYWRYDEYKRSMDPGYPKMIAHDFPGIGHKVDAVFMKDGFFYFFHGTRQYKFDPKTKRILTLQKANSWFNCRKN
Description: FIG. 2: MMP-1 activity assay. The purified protein inhibited bFGF-stimulated EC proliferation in the bFGF stimulated EC proliferation assay (Moses, et al., Science, 248:1408-1410 (1990)) (FIG. 1) and inhibited neovascularization in vivo in the CAM assay.

[5] = test system: microvascular cells; conditions: in vitro, amnion invasion assay; cited from earlier work
[6] = test system: endothelial cell; conditions: cited from earlier work
[7] = test system: MMP; assay: standard radiometric enzyme assay for MMP inhibition; type: biochemical
Description: After 24 hours, positive colonies were harvested, pooled and re-plated into minimal plates. Since multiple copies of the construct are reported to confer resistance to high levels of GF18 we screened for “jackpot” clones by replica plating in increasing doses of GF18, as high as 4 mg/ml. After four days, approximately five colonies containing multiple copies of the gene were screened for expression levels of TIMP-3 in 5 ml cultures. The two clones showing the highest expression, T3-3 His+Mut^s and T3-A His+Mut^s, were then used to inoculate 500 ml cultures, as was one clone containing pPIC9K vector alone as a control for background expression. Both T3-3 and T3-A produced a prominent protein band at app. […] Highly purified TIMP-3 was obtained by subsequent chromatography on a Progel-TSK G30000SWK HPLC column (Supelco) followed by SDS-PAGE and silver staining. […] Both T3-3 and T3-A were inhibitory when tested in the standard radiometric enzyme assay for MMP inhibition (Moses, M. A., et al., Science 248:1408-1410, (1990) and Moses, M. A., et al., J. Cell Biol. 119:475-482, (1992)).

Molecule: c1cnc2c(c1)ccc1cccnc12 [1,10-phenanthroline]
- inhibition of capillary tube formation [1]: could inhibit

Molecule: CKITRCPMIPCYISSPDECLWMDWVTEKNINGHQAKFFACIKRSDGSCAWYRGA APPKQEFLDIEDP [purified protein]
- inhibition of bFGF-stimulated EC proliferation [2]: inhibited
- inhibition of neovascularization in vivo [3]: inhibited
- inhibition of MMP-1 activity [4]: did not inhibit

Molecule: TIMP-1: Tissue Inhibitor of MetalloProteinase 1
- inhibition of migration of microvascular cells [5]: could inhibit
- inhibition of FGF-stimulated endothelial cell proliferation ([6]; FGF-stimulated): not
- effect on growth of EC proliferation ([6]; other studies): stimulate

The remaining lines, values ahead:

- MMP inhibition [7]: inhibitory
B1: T3-3: full length human TIMP-3 expressed by Pichia pastoris clone T3-3 (protein)
chain: CTCSPSHPQDAFCNSDIVIRAKVVGKKLVKEGPFGTLVYTIKQMKMYRGFTKMPHVQYIHTEASESLCGLKLEVNKYQYLLTGRVYDGKMYTGLCNFVERWDQLTLSQRKGLNYRYHLGCNCKIKSCYYLPCFVTSKNECLWTDMLSNFGYPGYQSKHYACIRQKGGYCSWYRGWAPPDKSIINATDP

- MMP inhibition [7]: inhibitory
B2: T3-A: full length human TIMP-3 expressed by Pichia pastoris clone T3-A (protein)
chain: CTCSPSHPQDAFCNSDIVIRAKVVGKKLVKEGPFGTLVYTIKQMKMYRGFTKMPHVQYIHTEASESLCGLKLEVNKYQYLLTGRVYDGKMYTGLCNFVERWDQLTLSQRKGLNYRYHLGCNCKIKSCYYLPCFVTSKNECLWTDMLSNFGYPGYQSKHYACIRQKGGYCSWYRGWAPPDKSIINATDP
